Tests used:
Conditions in all cases: biochemical, HTRF KinEASE-TK
PDGFRβ = PDGFRβ (Homo sapiens (Human), UniProt P09619); assay: Inhibition of PDGFRβ kinase activity (HTRF KinEASE-TK)
How it was run: (§1)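 Phosphorylation of biotinylated TK peptide read by HTRF (665/620 nm ratio) after 120 min at rt, following 1 h enzyme–compound preincubation. ATP (2× mix): 20 μM CSF1R, 16 μM c-Kit, 40 μM PDGFRβ, 1 μM PDGFRα; MgCl2 10 mM except c-Kit 5 mM. 22-point 1:2 titration; four-parameter IC50.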

c-Kit = c-Kit (Homo sapiens (Human), UniProt P10721); assay: Inhibition of c-Kit kinase activity (HTRF KinEASE-TK); assay type: biochemical
c-Kit, sequence (P10721 26-976): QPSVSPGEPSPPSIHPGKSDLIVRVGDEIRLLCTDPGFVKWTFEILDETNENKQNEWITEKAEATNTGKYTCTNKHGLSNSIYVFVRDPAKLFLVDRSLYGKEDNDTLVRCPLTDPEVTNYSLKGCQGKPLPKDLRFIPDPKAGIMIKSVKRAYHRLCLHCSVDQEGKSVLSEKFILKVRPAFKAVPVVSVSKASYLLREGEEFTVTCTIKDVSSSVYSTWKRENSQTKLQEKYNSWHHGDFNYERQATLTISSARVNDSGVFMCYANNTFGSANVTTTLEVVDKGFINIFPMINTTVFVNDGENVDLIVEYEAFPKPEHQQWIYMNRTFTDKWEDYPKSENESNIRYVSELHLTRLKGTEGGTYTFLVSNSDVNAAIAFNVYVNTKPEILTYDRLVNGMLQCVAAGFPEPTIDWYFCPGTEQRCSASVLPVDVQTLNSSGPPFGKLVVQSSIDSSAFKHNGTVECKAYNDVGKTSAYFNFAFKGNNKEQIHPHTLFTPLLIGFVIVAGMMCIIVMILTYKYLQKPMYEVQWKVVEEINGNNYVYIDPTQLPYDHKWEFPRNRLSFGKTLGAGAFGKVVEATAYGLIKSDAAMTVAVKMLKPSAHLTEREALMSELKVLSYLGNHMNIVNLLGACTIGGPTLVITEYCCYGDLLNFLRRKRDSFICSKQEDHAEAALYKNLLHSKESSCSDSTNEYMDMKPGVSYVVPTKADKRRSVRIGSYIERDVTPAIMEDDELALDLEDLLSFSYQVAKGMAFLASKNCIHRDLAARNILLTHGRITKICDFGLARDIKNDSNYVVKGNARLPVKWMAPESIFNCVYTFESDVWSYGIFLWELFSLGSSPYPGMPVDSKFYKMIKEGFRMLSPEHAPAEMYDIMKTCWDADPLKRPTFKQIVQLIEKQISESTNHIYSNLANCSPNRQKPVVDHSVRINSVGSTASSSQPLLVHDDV
How it was run: as §1

PDGFRα = PDGFRα (Homo sapiens (Human), UniProt P16234); assay: Inhibition of PDGFRα kinase activity (HTRF KinEASE-TK)
PDGFRα, sequence (P16234 24-1089): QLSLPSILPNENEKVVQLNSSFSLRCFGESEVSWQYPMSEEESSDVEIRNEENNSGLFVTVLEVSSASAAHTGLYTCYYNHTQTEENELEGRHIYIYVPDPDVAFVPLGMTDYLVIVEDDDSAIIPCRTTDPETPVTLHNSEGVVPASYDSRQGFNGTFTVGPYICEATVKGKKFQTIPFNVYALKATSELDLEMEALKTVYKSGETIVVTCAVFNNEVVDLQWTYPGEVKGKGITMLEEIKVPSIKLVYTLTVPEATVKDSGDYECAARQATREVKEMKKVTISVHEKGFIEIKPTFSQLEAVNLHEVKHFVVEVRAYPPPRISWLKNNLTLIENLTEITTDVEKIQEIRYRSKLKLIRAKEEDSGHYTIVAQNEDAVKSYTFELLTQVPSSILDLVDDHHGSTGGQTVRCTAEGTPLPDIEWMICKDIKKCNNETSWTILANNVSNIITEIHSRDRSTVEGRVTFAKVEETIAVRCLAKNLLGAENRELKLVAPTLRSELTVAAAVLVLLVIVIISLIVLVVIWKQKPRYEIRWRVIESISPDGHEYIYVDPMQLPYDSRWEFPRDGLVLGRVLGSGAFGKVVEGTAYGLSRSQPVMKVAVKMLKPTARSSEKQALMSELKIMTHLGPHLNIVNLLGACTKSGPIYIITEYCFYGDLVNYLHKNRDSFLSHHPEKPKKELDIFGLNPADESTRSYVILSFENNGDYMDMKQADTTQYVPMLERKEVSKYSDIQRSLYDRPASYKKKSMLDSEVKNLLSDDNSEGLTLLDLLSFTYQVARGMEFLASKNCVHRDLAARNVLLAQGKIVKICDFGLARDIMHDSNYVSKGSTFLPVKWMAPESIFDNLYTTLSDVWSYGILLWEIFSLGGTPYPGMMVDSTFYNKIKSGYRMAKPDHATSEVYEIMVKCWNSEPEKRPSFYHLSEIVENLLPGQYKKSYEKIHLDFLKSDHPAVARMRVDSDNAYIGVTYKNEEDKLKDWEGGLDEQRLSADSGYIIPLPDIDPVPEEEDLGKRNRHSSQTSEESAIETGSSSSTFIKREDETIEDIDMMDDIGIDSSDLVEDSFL
How it was run: as §1

FLT3 = FLT3 (Homo sapiens (Human), UniProt P36888); assay: Inhibition of FLT3 kinase activity (HTRF KinEASE-TK); assay type: biochemical
FLT3, sequence (P36888 27-993): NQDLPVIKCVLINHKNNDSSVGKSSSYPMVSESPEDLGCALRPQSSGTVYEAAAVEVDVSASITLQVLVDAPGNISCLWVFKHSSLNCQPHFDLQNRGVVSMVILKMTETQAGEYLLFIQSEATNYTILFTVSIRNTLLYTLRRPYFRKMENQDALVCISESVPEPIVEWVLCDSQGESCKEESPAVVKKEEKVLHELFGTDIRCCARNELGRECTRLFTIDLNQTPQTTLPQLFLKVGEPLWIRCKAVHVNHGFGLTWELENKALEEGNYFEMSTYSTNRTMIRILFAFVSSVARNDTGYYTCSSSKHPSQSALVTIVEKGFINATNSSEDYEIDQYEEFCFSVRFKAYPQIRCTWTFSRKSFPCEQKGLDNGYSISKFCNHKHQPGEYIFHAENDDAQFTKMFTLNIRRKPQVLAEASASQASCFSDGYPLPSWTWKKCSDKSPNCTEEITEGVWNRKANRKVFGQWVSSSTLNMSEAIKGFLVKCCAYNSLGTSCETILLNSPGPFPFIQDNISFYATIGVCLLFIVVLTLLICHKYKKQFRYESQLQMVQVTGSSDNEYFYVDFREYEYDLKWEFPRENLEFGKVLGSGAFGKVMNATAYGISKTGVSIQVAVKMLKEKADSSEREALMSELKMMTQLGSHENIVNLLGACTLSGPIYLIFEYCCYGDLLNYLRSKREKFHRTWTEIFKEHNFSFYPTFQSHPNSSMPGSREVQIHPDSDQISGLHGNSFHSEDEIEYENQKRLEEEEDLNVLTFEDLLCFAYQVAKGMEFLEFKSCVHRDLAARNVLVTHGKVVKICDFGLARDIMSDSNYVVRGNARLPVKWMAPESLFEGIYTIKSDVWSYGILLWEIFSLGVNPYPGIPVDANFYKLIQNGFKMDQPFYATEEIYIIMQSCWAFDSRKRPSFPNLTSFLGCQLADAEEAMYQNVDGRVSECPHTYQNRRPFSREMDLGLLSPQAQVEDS
Description: Inhibition of c-Kit, PDGFRα, PDGFRβ, CSFIR and FLT3 Kinase Activity
Compounds were evaluated to determine the potency with which they inhibit the kinase activity of the following panel of tyrosine kinases: c-Kit (SignalChem, Product #: K06-11BG), PDGFRα (SignalChem, Product #: P12-18G), PDGFRβ (SignalChem, Product #: P13-11G), CSFIR (SignalChem, Product #: C74-11G) and FLT3 (Invitrogen, Product #: PR4666C). Activity was determined as a function of phosphorylated biotinylated TK peptide generated by the transfer of phosphate from ATP as measured by the use of the HTRF KinEASE-TK assay kit (Cisbio, Product #: 62TKOPEJ). Levels of phosphorylated biotinylated TK peptide (Part 61TKOBLC of KinEASE assay kit) are quantified by its capture by phosphor-TK-Antibody-Cryptate (Part of KinEASE assay kit) and XL665-labeled Streptavidin (Part 610SAXLG of KinEASE assay kit) followed by measurement of Time-Resolved Fluorescence Resonance Energy Transfer (TR-FRET) signal. On the day of the assay, compounds were solubilized in DMSO and dispensed into a 384-well white Opti-plate (PerkinElmer, catalog #6007290) to generate a 22 point 1:2 titration. Enzyme solution was prepared for each of the tyrosine kinases in 50 mM HEPES, pH 7.4, 5 mM MgCl2 for c-Kit or 10 mM MgCl2 for FLT3, CSFIR, PDGFRa and PDGFRβ, 2 mM MnCl2, 0.01% Brij-35 and 0.01% BSA. Working enzyme concentrations were prepared for c-Kit at 2 nM (2×), PDGFRa and PDGFRß at 10 nM (2×), CSFIR at 2 nM (2×) and FLT3 at 0.4 nM (2×). Five microliters of enzyme dilution of each tyrosine kinase were added to their respective 384-well white Opti-plate pre-dispensed with compound and allowed to incubate for 1 h at rt. Utilizing the same enzyme buffer recipe, 2x substrate mixes were prepared for each enzyme as follows: For c-Kit, 1.6 μM (2×) TK substrate and 16 μM (2×) ATP (Promega, catalog #V915). For PDGFRα, 3.2 μM TK substrate and 1 μM ATP. For PDGFRβ, 3.2 μM TK substrate and 40 μM ATP. For CSFIR, […] TK substrate and 20 μM ATP. For FLT3, 3.2 μM TK substrate and 100 μM ATP. Reactions were initiated by addition of 5 μL of the respective 2x substrate mix to each well of the plates containing the respective tyrosine kinase enzymes and were allowed to proceed for 120 minutes at rt, except for FLT3, the reaction time is 45 min. Following the reaction, 10 μL of detection mix consisting of 0.2 μM (2×) of Streptavidin-XL665 and 2 μM (2×) of TK-Antibody-Cryptate prepared in detection buffer (Part 62SDBRDF of KinEASE assay kit) was added and then allowed to incubate for 60 min. The TR-FRET signal was quantified by measuring the ratio of emission at 665 nm to 620 nm after excitation at 320 nm by reading on a PerkinElmer Envision multimode reader. Compound potencies (IC50 values) were determined using a standard 4-parameter non-linear regression fit.

CSF1R = CSF1R (Homo sapiens (Human), UniProt P07333); assay: Inhibition of CSF1R kinase activity (HTRF KinEASE-TK)
CSF1R, sequence (P07333 20-972): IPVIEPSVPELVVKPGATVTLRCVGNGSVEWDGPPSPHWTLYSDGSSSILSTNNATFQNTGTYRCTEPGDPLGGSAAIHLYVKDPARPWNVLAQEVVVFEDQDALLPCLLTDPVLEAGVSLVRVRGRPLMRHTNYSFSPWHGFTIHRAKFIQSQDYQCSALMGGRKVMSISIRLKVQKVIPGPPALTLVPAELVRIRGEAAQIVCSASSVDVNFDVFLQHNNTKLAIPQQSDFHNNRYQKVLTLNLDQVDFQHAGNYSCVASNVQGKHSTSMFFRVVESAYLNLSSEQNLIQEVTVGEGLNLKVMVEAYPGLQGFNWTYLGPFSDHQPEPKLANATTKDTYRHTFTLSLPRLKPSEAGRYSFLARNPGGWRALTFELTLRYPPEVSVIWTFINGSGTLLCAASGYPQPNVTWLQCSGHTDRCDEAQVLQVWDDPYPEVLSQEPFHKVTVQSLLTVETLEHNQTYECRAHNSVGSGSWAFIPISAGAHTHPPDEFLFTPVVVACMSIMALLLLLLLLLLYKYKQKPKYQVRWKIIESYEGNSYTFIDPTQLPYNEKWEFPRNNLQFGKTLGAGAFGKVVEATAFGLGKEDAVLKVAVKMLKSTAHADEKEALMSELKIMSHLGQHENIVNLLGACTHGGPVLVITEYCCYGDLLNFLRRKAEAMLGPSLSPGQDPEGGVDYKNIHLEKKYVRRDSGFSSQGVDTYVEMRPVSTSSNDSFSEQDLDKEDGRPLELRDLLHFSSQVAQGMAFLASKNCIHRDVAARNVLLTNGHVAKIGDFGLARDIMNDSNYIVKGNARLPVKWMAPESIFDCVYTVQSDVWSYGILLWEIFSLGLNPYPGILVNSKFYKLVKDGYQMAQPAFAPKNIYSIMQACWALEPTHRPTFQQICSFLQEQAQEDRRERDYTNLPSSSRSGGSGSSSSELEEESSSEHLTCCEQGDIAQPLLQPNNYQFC
How it was run: as §1

PDGFRβ, sequence (P09619 33-1106): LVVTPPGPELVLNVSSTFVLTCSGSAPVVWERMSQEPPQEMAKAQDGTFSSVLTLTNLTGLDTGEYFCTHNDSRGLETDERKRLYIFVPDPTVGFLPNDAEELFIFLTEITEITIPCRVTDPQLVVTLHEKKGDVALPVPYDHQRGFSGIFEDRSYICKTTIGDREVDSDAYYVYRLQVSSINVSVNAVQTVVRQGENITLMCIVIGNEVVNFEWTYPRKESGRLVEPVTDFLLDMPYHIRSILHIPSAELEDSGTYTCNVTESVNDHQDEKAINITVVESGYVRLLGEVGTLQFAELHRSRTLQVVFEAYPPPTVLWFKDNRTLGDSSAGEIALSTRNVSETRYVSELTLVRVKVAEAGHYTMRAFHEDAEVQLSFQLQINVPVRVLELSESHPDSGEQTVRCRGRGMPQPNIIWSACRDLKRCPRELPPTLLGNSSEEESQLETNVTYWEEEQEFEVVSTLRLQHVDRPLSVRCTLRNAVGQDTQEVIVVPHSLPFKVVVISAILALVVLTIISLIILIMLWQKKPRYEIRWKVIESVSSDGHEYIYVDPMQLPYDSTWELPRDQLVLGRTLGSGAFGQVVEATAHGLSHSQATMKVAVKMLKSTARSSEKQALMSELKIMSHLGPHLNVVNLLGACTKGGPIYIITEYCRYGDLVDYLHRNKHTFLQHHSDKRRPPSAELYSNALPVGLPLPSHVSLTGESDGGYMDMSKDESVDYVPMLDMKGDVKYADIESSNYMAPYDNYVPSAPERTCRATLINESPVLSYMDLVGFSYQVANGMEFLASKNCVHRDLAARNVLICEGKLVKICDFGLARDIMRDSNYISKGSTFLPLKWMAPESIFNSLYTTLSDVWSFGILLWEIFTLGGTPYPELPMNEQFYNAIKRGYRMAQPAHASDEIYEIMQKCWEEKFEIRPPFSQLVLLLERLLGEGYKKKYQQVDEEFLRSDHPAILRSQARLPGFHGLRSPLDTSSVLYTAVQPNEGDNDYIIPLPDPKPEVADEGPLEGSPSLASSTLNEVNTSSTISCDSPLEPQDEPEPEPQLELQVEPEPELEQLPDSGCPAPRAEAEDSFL

SMILES	IC50 (PDGFRβ) [nM]	IC50 (c-Kit) [nM]	IC50 (PDGFRα) [nM]	IC50 (FLT3) [nM]	IC50 (CSF1R) [nM]
Cc1ncc(C(=O)Nc2cc(C(=O)Nc3ncc(C4CC4)cn3)c(F)cc2C)s1 [Example 44, NV-[5-[(5-cyclopropylpyrimidin-2-yl)carbamoyl]-4-fluoro-2-methylphenyl]-2-methyl-1,3-thiazole-5-carboxamide]	> 1000	< 100	> 1000	> 1000	> 1000
Cc1ncc(C(=O)Nc2cc(C(=O)Nc3ccn(C4CCC4)n3)c(F)cc2C)s1 [Example 61, N-[5-[(1-Cyclobutylpyrazol-3-yl)carbamoyl]-4-fluoro-2-methylphenyl]-2-methyl-1,3-thiazole-5-carboxamide]	> 1000	< 100	> 1000	> 1000	> 1000
Cc1cc(F)c(C(=O)N[C@H]2CCOC2)cc1NC(=O)c1cnc(NC(=O)N2CCOCC2)s1 [Example 105, N-[5-[[4-fluoro-2-methyl-5-[[(3S)-oxolan-3-yl]carbamoyl]phenyl]carbamoyl]-1,3-thiazol-2-yl]morpholine-4-carboxamide]	> 1000	< 100	> 1000	> 1000	> 1000
Cc1cc(F)c(C(=O)Nc2ccc3c(n2)COC3)cc1NC(=O)c1cnc(N)s1 [Example 120, 2-Amino-N-[5-(5,7-dihydrofuro [3,4-b]pyridin-2-ylcarbamoyl)-4-fluoro-2-methylphenyl]-1,3-thiazole-5-carboxamide]	> 1000	< 100	> 1000	> 1000	> 1000
Cc1cc(F)c(C(=O)N[C@H]2C[C@H]2F)cc1NC(=O)c1cnc(N)s1 [Example 136, 2-Amino-N-[4-fluoro-5-[[(1S,2R)-2-fluorocyclopropyl]carbamoyl]-2-methylphenyl]-1,3-thiazole-5-carboxamide]	> 1000	100 to 1000	100 to 1000	> 1000	> 1000
Cc1cc(F)c(C(=O)N[C@@H]2C[C@@H]2F)cc1NC(=O)c1cnc(N)s1 [Example 137]	> 1000	< 100	100 to 1000	> 1000	> 1000
Cc1cc(F)c(C(=O)N[C@H]2C[C@@H]2F)cc1NC(=O)c1cnc(N)s1 [Example 138, 2-Amino-N-[4-fluoro-5-[[(1S,2S)-2-fluorocyclopropyl]carbamoyl]-2-methylphenyl]-1,3-thiazole-5-carboxamide]	> 1000	< 100	100 to 1000	> 1000	> 1000
Cc1cnc(NC(=O)c2cc(NC(=O)c3cnc(N)s3)c(C)cc2F)s1 [Example 160, 2-Amino-N-[4-fluoro-2-methyl-5-[(5-methyl-1,3-thiazol-2-yl)carbamoyl]phenyl]-1,3-thiazole-5-carboxamide]	100 to 1000	< 100	> 1000	> 1000	100 to 1000
Cc1cc(F)c(C(=O)Nc2cnn(C3CC3)c2)cc1NC(=O)c1cnc(N)s1 [Example 161, 2-Amino-N-[5-[(1-cyclopropylpyrazol-4-yl)carbamoyl]-4-fluoro-2-methylphenyl]-1,3-thiazole-5-carboxamide]	100 to 1000	< 100	100 to 1000	> 1000	100 to 1000
Cc1cc(F)c(C(=O)Nc2ccn(C)n2)cc1NC(=O)c1cnc(N)s1 [Example 163, 2-Amino-N-[4-fluoro-2-methyl-5-[(1-methylpyrazol-3-yl)carbamoyl]phenyl]-1,3-thiazole-5-carboxamide]	> 1000	< 100	> 1000	> 1000	> 1000
Cc1ncc(NC(=O)c2cc(NC(=O)c3cnc(N)s3)c(C)cc2F)s1 [Example 166, 2-Amino-N-[4-fluoro-2-methyl-5-[(2-methyl-1,3-thiazol-5-yl)carbamoyl]phenyl]-1,3-thiazole-5-carboxamide]	100 to 1000	< 100	> 1000	> 1000	100 to 1000
Cc1cc(F)c(C(=O)Nc2cnn(C)c2)cc1NC(=O)c1cnc(N)s1 [Example 167, 2-Amino-N-[4-fluoro-2-methyl-5-[(1-methylpyrazol-4-yl)carbamoyl]phenyl]-1,3-thiazole-5-carboxamide]	> 1000	< 100	> 1000	> 1000	> 1000
Cc1cc(F)c(C(=O)Nc2cnn(C(C)C)n2)cc1NC(=O)c1cnc(N)s1 [Example 171, 2-Amino-N-[4-fluoro-2-methyl-5-[(2-propan-2-yltriazol-4-yl)carbamoyl]phenyl]-1,3-thiazole-5-carboxamide]	100 to 1000	< 100	100 to 1000	> 1000	100 to 1000
COC(c1ccc(NC(=O)c2cc(NC(=O)c3cnc(N)s3)c(C)cc2F)nc1)C1CC1 (stereo not drawn) [Example 197, 2-Amino-N-[5-[[5-[cyclopropyl(methoxy)methyl]pyridin-2-yl]carbamoyl]-4-fluoro-2-methylphenyl]-1,3-thiazole-5-carboxamide]	100 to 1000	< 100	> 1000	> 1000	> 1000
Cc1cc(F)c(C(=O)Nc2ccc(OC(F)F)cc2)cc1NC(=O)c1cnc(N)s1 [Example 227, 2-Amino-N-[5-[[4-(difluoromethoxy)phenyl]carbamoyl]-4-fluoro-2-methylphenyl]-1,3-thiazole-5-carboxamide]	< 100	< 100	< 100	> 1000	< 100
Nc1ncc(C(=O)Nc2cc(C(=O)Nc3ccc(OC4CC4)cn3)c(F)cc2Br)s1 [Example 236, 2-Amino-N-[2-bromo-5-[(5-cyclopropyloxypyridin-2-yl)carbamoyl]-4-fluorophenyl]-1,3-thiazole-5-carboxamide]	100 to 1000	< 100	> 1000	> 1000	100 to 1000
Cc1cc(F)c(C(=O)Nc2ccc(OC3CC3)cn2)cc1NC(=O)c1cnc(NC(=O)C(F)(F)F)s1 [Example 239, N-[5-[(5-cyclopropyloxypyridin-2-yl)carbamoyl]-4-fluoro-2-methylphenyl]-2-[(2,2,2-trifluoroacetyl)amino]-1,3-thiazole-5-carboxamide]	100 to 1000	< 100	> 1000	> 1000	> 1000
CC(=O)Nc1ncc(C(=O)Nc2cc(C(=O)Nc3ccc(OC4CC4)cn3)c(F)cc2C)s1 [Example 240, 2-Acetamido-N-[5-[(5-cyclopropyloxypyridin-2-yl)carbamoyl]-4-fluoro-2-methylphenyl]-1,3-thiazole-5-carboxamide]	< 100	< 100	> 1000	> 1000	> 1000
